# From US10231939B2, “Hydroxytyrosol and oleuropein compositions for induction of DNA damage, cell death and LSD1 inhibition” (priority 2012, dated 2019)
# Values joined by “and” are separate entries in the source; they are usually repeats but may differ in a detail not shown here. Equal values may be shown once.
# Legend:
# Assay type in all cases: cell-based, human
# [1] = tested on: K562 cells; experiment: Western blotting of histone methylation, K562; settings: K562, 100 μM, 24 hours
# [2] = tested on: K562 cells; experiment: mRNA-Sequencing, K562 cells; settings: 24 hours
# Protocol: Cells were seeded at densities of 1×10^6/mL in culture flasks (Nalge Nunc, New York, USA) and treated with hydroxytyrosol (0, 20, 100 μM), for 24 hours at 37° C., 5% (v/v) CO2. mRNA sequencing was performed by TRIZOL extraction and library preparation using Illumina kits according to manufacturer's protocols. Next generation sequencing (NGS) was performed at a depth of approximately 20 million mapped reads per sample to determine the effect of hydroxytyrosol on genome-wide gene expression, in human erythroleukemic K562 cells and human keratinocytes (24 hr treatment, 20 and 100 μM). Reads generated by the Illumina base calling software V1.6 were aligned with Burrows Wheeler Aligner to the human transcriptome database curated by RefSeq (Hg18 build). Raw counts were normalized to adjust for slightly differing data volume across lanes giving the widely used score reads per transcript per million reads. These scores were used to determine relative fold changes and the conventionally used ±1.5 fold-change, which is discernible with qRT-PCR, was defined a significant change in expression. The online program MetaCore (GeneGo Inc. St. Joseph, MI, USA) was used for pathway analysis.
# Cells were seeded at densities of 1×10^6/mL in culture flasks (Nalge Nunc, New York, USA) and K562 cells were treated with or without 100 μM hydroxytyrosol for 24 hours at 37° C., 5% (v/v) CO2. mRNA sequencing was performed by TRIZOL extraction and library preparation using Illumina kits according to manufacturer's protocols. Next generation sequencing (NGS) was performed at a depth of approximately 20 million mapped reads per sample. Reads generated by the Illumina base calling software V1.6 were aligned with Burrows Wheeler Aligner to the human transcriptome database curated by RefSeq (Hg18 build). Raw counts were normalized to adjust for slightly differing data volume across lanes giving the widely used score reads per transcript per million reads. These scores were used to determine relative fold changes and the conventionally used ±1.5 fold-change, which is discernible with qRT-PCR, was defined a significant change in expression. The online program MetaCore (GeneGo Inc. St. Joseph, MI, USA) was used for pathway analysis. The Warburg gene-set shown in Table 10 was used to investigate changes in Warburg-related genes in human erythroleukemic compared to normal peripheral blood mononuclear cells and changes in expression of Warburg-related genes following incubation of K562 cells with hydroxytyrosol.
# [3] = tested on: K562 cells; experiment: Cell viability (Cell-Titer Blue), K562
# Protocol: Cells were seeded at densities of 7,500 cells/in black flat bottom 96-well plates (Nalge Nunc, Penfield, N.Y., USA) and treated with a dose response of hydroxytyrosol (0-200 μM), oleuropein (0-800 μM), tyrosol (0-1000 μM) and homovanilic acid (0-1000 μM) for 24 hours at 37° C., 5% (v/v) CO2. Cell viability was determined after 24 hour exposure to hydroxytyrosol and measured using the Cell-Titer Blue® Assay kit (Promega, Madison, Wis., USA) according to the manufacturer's instructions. Cell-Titer Blue reagent was added to each well and incubated for 4 hours at 37° C., 5% CO2, before reading fluorescence intensity (550 nm excitation; 615 nm emission) using the Perkin Elmer Victor3 (Perkin Elmer, MA, USA) multi-label plate reader. Alternatively Cells were seeded at densities of 7,500 cells/in black flat bottom 96-well plates (Nalge Nunc, Penfield, N.Y., USA) and treated with 100 μM hydroxytyrosol for 24 hours at 37° C., 5% (v/v) CO2. […] Fluorescence intensity (λex=550 nm and λem=615 nm) was determined using a Perkin Elmer Victor3 multilabel microplate counter (PerkinElmer, Waltham, Mass., USA). Data were expressed as % relative cell viability compared to untreated cells after correction of subtracting the media control fluorescence reading.
# [4] = 100 μM HT, negative = down-regulated
# [5] = 100 μM HT, negative = down-regulated, listed as hydroxytyrosol
# [6] = 100 μM hydroxytyrosol, unsigned
compound,measurement,setting,value
"OCCc1ccc(O)c(O)c1 [HT, 4-(2-hydroxyethyl)-1,2-benzenediol]",histone H3 lysine 9 (H3K9) di-methylation,[1],increased
same,HDAC9 expression Fold Change (DOWN),[2]; 20 μM HT,1.82 fold and 2.00 fold
same,KDM4C expression Fold Change (DOWN),[2]; 20 μM HT,1.61 fold
same,NCOA2 expression Fold Change (DOWN),[2]; 20 μM HT,1.63 fold
same,PHF8 expression Fold Change (DOWN),[2]; 20 μM HT,1.62 fold
same,PRDM1 expression Fold Change (DOWN),[2]; 20 μM HT,1.68 fold
same,PRDM6 expression Fold Change (UP),[2]; 20 μM HT,3.50 fold
same,PRDM12 expression Fold Change (DOWN),[2]; 20 μM HT,1.50 fold
same,PRMT8 expression Fold Change (DOWN),[2]; 20 μM HT,2.13 fold
same,EHMT1 expression Fold Change (DOWN),[2]; 100 μM HT,1.63 fold
same,GTF3C4 expression Fold Change (DOWN),[2]; 100 μM HT,1.55 fold
same,HDAC7 expression Fold Change (DOWN),[2]; 100 μM HT,1.76 fold and 1.78 fold
same,HDAC9 expression Fold Change (UP),[2]; 100 μM HT,2.05 fold and 1.50 fold
same,KDM4A expression Fold Change (UP),[2]; 100 μM HT,1.71 fold
same,KDM4C expression Fold Change (DOWN),[2]; 100 μM HT,1.66 fold
same,KDM6B expression Fold Change (UP),[2]; 100 μM HT,1.70 fold
same,MLL3 expression Fold Change (DOWN),[2]; 100 μM HT,1.68 fold
same,NCOA2 expression Fold Change (DOWN),[2]; 100 μM HT,1.50 fold
same,NPM2 expression Fold Change (DOWN),[2]; 100 μM HT,3.33 fold
same,PPARGC1A expression Fold Change (UP),[2]; 100 μM HT,2.00 fold
same,PRDM6 expression Fold Change (DOWN),[2]; 100 μM HT,2.00 fold
same,PRDM9 expression Fold Change (UP),[2]; 100 μM HT,1.85 fold
same,PRDM10 expression Fold Change (DOWN),[2]; 100 μM HT,1.92 fold
same,PRDM12 expression Fold Change (UP),[2]; 100 μM HT,2.00 fold
same,PRDM15 expression Fold Change (DOWN),[2]; 100 μM HT,1.78 fold
same,PRMT8 expression Fold Change (DOWN),[2]; 100 μM HT,1.89 fold
same,RPS6KA5 expression Fold Change (UP),[2]; 100 μM HT,1.56 fold
same,SETD1A expression Fold Change (DOWN),[2]; 100 μM HT,1.56 fold
same,SETD7 expression Fold Change (UP),[2]; 100 μM HT,3.41 fold
same,SMYD3 expression Fold Change (UP),[2]; 100 μM HT,1.60 fold and 1.57 fold
same,"ACLY expression Fold Change, K562 + 100 μM HT",[2]; [4],−1.60 fold
same,"AKT3 expression Fold Change, K562 + 100 μM HT",[2]; [4],2.04 fold
same,"BBC3 expression Fold Change, K562 + 100 μM HT",[2]; [4],2.66 fold
same,"C12orf5 expression Fold Change, K562 + 100 μM HT",[2]; [4],3.57 fold
same,"CASP4 expression Fold Change, K562 + 100 μM HT",[2]; [4],1.87 fold
same,"CASP7 expression Fold Change, K562 + 100 μM HT",[2]; [4],2.27 fold
same,"CASP8 expression Fold Change, K562 + 100 μM HT",[2]; [4],1.62 fold
same,"ME1 expression Fold Change, K562 + 100 μM HT",[2]; [4],2.22 fold
same,"PFKFB2 expression Fold Change, K562 + 100 μM HT",[2]; [4],−1.53 fold
same,"PFKFB4 expression Fold Change, K562 + 100 μM HT",[2]; [4],−1.79 fold
same,"SLC1A4 expression Fold Change, K562 + 100 μM HT",[2]; [4],4.28 fold
same,"SREBF1 expression Fold Change, K562 + 100 μM HT",[2]; [4],−1.69 fold
same,"TFR2 expression Fold Change, K562 + 100 μM HT",[2]; [4],−1.90 fold
same,"TP53 expression Fold Change, K562 + 100 μM HT",[2]; [4],2.30 fold
same,"VEGFA expression Fold Change, K562 + 100 μM HT",[2]; [4],2.65 fold
same,"BBC3 expression Fold Change, K562 + 100 μM HT",[2]; [5],2.29 fold
same,"CASP7 expression Fold Change, K562 + 100 μM HT",[2]; [5],2.01 fold
same,"TP53 expression Fold Change, K562 + 100 μM HT",[2]; [5],1.91 fold
same,differentially expressed Warburg-related genes reversing expression towards that observed in PBMC cells,[2]; 100 μM hydroxytyrosol,87%
same,"ACLY down-regulated, fold change",[2]; [6],1.59 fold
same,"PFKB2 down-regulated, fold change",[2]; [6],1.53 fold
same,"PFKFB4 down-regulated, fold change",[2]; [6],1.79 fold
same,transferrin receptor 2 (TRF2) down-regulated,[2]; [6],1.9 fold
same,differential expression of the Warburg-related genes regulated in K562 vs PBMC,"[2]; 100 μM hydroxytyrosol, share of the 51 genes",30%
same,cell viability of K562 cells,"[3]; 20 or 100 μM, 24 hours",significantly reduced in a dose dependent manner
same,effect on the cytotoxicity of doxorubicin,"[3]; K562, hydroxytyrosol pre-treatment 24 hours, then doxorubicin",enhances the cytotoxicity of doxorubicin
